Reference: patent US12060360B2, “Lysyl oxidase inhibitors” (The Institute of Cancer Research: Royal Cancer Hospital, priority 2017, dated 2024)

How the values were obtained:
LOX = target: T1, LOX (Mus musculus, UniProt P28301); assay: LOX activity in cysts assay (LOX-roGFP2 biosensor, MDCK cysts); format: cell-based; conditions: MDCK cysts
T1 construct: Full length LOX cDNA was then PCR cloned into pEGFP-N1 (Clonetech), or biosensor vector proGFP2-N1; expressed in transfected cells; host or cells: MDCK cells grown as cysts on Matrigel, G418-selected
T1 sequence (P28301 163-411): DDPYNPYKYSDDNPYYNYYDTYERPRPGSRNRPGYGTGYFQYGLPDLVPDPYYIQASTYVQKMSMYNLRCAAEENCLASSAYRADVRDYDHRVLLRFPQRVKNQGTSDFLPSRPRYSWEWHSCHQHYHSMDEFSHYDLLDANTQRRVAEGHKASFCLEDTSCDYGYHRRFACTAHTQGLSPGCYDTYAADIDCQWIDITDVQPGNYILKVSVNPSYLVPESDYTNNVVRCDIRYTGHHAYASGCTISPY
Procedure, shortened: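 Live MDCK cysts grown 10 days on Matrigel and expressing mouse LOX fused to the roGFP2 redox biosensor, with inhibitors added 30 min before confocal imaging. Oxidised/reduced ratio (405/488 nm excitation, 500–530 nm emission) at the basal cyst surface taken as LOX activity. DMSO defines 0% and 1 mM BAPN 100% inhibition.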

[1] = tested on: SW620 human colorectal carcinoma cells (mutant RAS); assay: SW620 xenografts, primary tumour volume T/C; format: in vivo; conditions: 200 mg/kg po qd; ratio of average tumour volume treated/vehicle control; p<0.05
Procedure: (§1) All procedures involving animals were approved by the Animal Welfare and Ethical Review Body of the Institute of Cancer Research and Cancer Research UK Manchester Institute in accordance with National Home Office regulations under the Animals (Scientific Procedures) Act 1986 and according to the guidelines of the Committee of the National Cancer Research Institute Tumour size was determined by caliper measurements of tumour length, width and depth and volume was calculated as volume=0.5236×length×width×depth (mm).
SW620 xenografts: NCr mice were inoculated subcutaneously in the right flank with 5×10^6 SW620 cells at 100 ul suspension per animal. Groups of 7-8 mice were assigned to treatment following stratified allocation of tumour volumes with a median size of circa 100 mm^3. […] Tumours and weights are measured twice weekly using calipers. […] Frozen samples are kept at −80 degree centigrade until being analysed and the fixed samples stained according to the desired marker.
For therapeutic efficacy assessment, the ratio of average tumour volume between compound treated and vehicle control treated (T/C) is calculated. […] The efficacy of LOX inhibitors described in this invention, as measured by T/C in a pancreatic cancer model, a colorectal cancer model and a breast cancer model is shown in Table 2 and is significant (p<0.05) for all the data presented.

[2] = tested on: MDA-MB-231 human breast adenocarcinoma; assay: MDA-MB-231 xenografts, primary tumour volume T/C; format: in vivo; conditions: 200 mg/kg po qd, ratio of average tumour volume treated/vehicle control, p<0.05
Procedure: as §1
MDA-MB-231 xenografts. Ncr nude female mice at 6 weeks old from Charles River were injected into the third upper nipple mammary fat pad with MDA-MB-231 Luc 4×10^6 in 100 ul PB (50:50 Matrigel). When tumours reach a mean of 80 mm^3 around 10 days post cell inoculation the animals are allocated in 4 groups of 8. LOX inhibitor treatment is then administrated by oral gavage dosing, at 0.2 ml/20 g bodyweight once daily for up to 28 consecutive days. Tumours and weights are measured twice weekly using calipers and the animals can be imaged using non invasive method by bioluminescence using IVIS 200 imaging machine, weekly using 150 mg/kg luciferin administrate intraperitoneal or subcutaneous. At the end of the study the animals are culled, and samples taken, fixed or snap frozen in liquid nitrogen. Frozen samples kept at −80 degree centigrade until being analyzed and the fixed samples stained according to desired marker.
(§2) For therapeutic efficacy assessment, the ratio of average tumour volume between compound treated and vehicle control treated (T/C) is calculated. Reduction in tumour volume in the compound treated group compared to vehicle-treated control group results in T/C<1. The efficacy of LOX inhibitors described in this invention, as measured by T/C in a pancreatic cancer model, a colorectal cancer model and a breast cancer model is shown in Table 2 and is significant (p<0.05) for all the data presented.

[3] = tested on: MMTV-PyMT breast transgenic model primary tumour; assay: MMTV-PyMT transgenic mouse breast cancer model, primary tumour T/C; format: in vivo; conditions: 200 mg/kg po qd; ratio of average tumour volume treated/vehicle control; p<0.05
Procedure: as §1
(§3) MMTV-PyMT (Guy et al, 1992) (FVB) female mice were randomized by non-statistical methods to LOX inhibitor treatment groups from day 70 post-birth, when animals had no detectable tumour. Mice were treated daily by oral gavage with LOX inhibitor in vehicle, or daily vehicle (5% DMSO/2.5% Tween20 in water) by oral gavage. Tumour size was determined unblinded by caliper measurements of tumour length, width and depth and volume was calculated as 0.5236×length×width×depth (mm). In all experiments, mice were humanely killed and mammary tumours and lungs were collected when the primary tumours reached ethical limits or signs of ill health.
as §2

[4] = tested on: MMTV-PyMT breast transgenic model lung metastases; assay: MMTV-PyMT transgenic mouse breast cancer model, lung metastases quantification T/C; format: in vivo; conditions: 200 mg/kg po qd, treated/vehicle control, p<0.05
Procedure: as §3
For lung metastases quantification, all mouse tissue samples were fixed in 10% formalin (Sigma) and embedded in paraffin. Samples were sectioned and hematoxylin and eosin (H&E) stained. Samples were imaged with a Leica CN400 slide scanner. Lung metastases were manually selected using Pen tool in ImageScope. Lung metastases number was counted and area was measured using ImageScope. The investigator was blinded to the experimental groups. The ratio of average metastases surface between compound treated and vehicle control treated (TIC) is calculated. The ratio of average metastases numbers between compound treated and vehicle control treated (T/C) is also calculated. Reduction in metastases area and/or in metastatses number in the compound treated group compared to vehicle-treated control group results in T/C<1. The antimetastatic efficacy of LOX inhibitors described in this invention, as measured by T/C in a model of breast cancer metastasising to lungs is shown in Table 2 and is significant (p<0.05) for all the data presented.

SMILES: CC1(C)C[C@@H]2CN(C(=O)N3CCS(=O)(=O)CC3)C[C@H]1N(c1ccc(N3CCS(=O)(=O)CC3)cc1)C2 [Example 8, (1,1-dioxidothiomorpholino)((1S,5S)-6-(4-(1,1-dioxidothiomorpholino)phenyl)-9,9-dimethyl-3,6-diazabicyclo[3.2.2]nonan-3-yl)methanone]
- inhibition at 2.5 µM (LOX; 2.5 uM (stated in cell), DMSO = 0%, BAPN 1 mM = 100% inhibition, read-out: LOX biosensor inhibition (cyst) @ 2.5 uM): 100%
- IC50 (LOX; roGFP2 ratio at basal surface, read-out: LOX biosensor IC50 (cyst)): 540 nM
- T/C SW620 human colorectal carcinoma cells (mutant RAS) - primary tumour [1]: 0.48
- response vs control in vivo at 200 mg/kg [2]: 54%
- T/C MMT-PyMT breast transgenic model - primary tumour [3]: 0.22
- T/C MMT-PyMT breast transgenic model - metastases b) Area ([4]; lung metastases area): b) 0.012
- T/C MMT-PyMT breast transgenic model - metastases a) Count ([4]; lung metastases number): a) 0.1
